Data from patent publication US20130231360A1, “Beta-Carbolines as Inhibitors of Haspin and DYRK Kinases” (THE BRIGHAM AND WOMEN S HOSPITAL, INC., priority 2010, published 2013).

These compounds were tested against T1, Haspin kinase (Homo sapiens, UniProt Q8TF76) (assay: TR-FRET Haspin assay). Details: not given.
T1 construct: This full-length Haspin gene was cloned into the pMALc2E vector; made in house; host or cells: E. coli Rosetta 2(DE3)pLysS
T1 sequence (Q8TF76 1-798): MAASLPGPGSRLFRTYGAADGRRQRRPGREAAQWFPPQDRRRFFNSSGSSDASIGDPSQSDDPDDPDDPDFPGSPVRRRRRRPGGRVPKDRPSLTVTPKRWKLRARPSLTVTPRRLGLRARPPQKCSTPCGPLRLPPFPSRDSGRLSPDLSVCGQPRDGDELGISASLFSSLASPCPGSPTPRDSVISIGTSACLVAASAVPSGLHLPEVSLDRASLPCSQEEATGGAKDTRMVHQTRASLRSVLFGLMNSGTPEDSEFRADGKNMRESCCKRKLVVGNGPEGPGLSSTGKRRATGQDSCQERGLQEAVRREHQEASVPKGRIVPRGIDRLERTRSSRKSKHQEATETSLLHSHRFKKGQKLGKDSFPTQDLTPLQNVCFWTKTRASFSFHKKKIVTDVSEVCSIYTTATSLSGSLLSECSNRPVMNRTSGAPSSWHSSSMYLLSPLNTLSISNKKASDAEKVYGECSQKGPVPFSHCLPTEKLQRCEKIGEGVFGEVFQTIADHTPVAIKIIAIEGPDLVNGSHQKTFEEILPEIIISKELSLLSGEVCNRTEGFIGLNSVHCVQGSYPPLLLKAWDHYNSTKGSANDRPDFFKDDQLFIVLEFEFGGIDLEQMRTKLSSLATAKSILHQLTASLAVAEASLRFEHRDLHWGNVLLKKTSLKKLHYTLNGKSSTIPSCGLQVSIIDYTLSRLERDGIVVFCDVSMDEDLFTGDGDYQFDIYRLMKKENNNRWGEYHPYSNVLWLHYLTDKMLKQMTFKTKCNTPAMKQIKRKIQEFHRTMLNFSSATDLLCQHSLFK
Assay type: biochemical
Source text: A synthetic codon-optimized human Haspin cDNA was made in vector pUC57 at GenScript Corporation (Piscataway, N.J.) to facilitate bacterial expression. This full-length Haspin gene was cloned into the pMALc2E vector (New England Biolabs, Ipswich, Mass.) using EcoR I and Sal I sites. Haspin was expressed and purified as an N-terminal MBP fusion protein from E. coli Rosetta™2(DE3)pLysS cells (Novagen, Madison, Wis.). A freshly transformed colony was used to initiate a small volume liquid culture in LB medium with 2 g/l glucose, 34 μg/ml chloramphenicol and 100 μg/ml ampicillin. This culture was used to inoculate a large volume of the same medium and grown until an absorbance at 600 nm of 0.5 was reached. Protein expression was induced by adding 0.3 mM isopropyl thiogalactoside and growth with shaking at room temperature for 14 hours. Affinity column chromatography was carried out using amylose resin following the manufacturer's instructions (New England Biolabs). The fusion protein was eluted in 50 mM Tris, pH 7.5, 200 mM NaCl, 10 mM maltose and dialyzed into 50 mM Tris, pH 7.5, 200 mM NaCl, 2 mM DTT and 50% glycerol. The purity and yield of intact fusion protein was determined by SDS-PAGE and Coomassie Blue staining, in comparison with known quantities of bovine serum albumin.
This peptide carried biotin on the side chain of the C-terminal lysine. Recombinant full-length human histone H3 was from New England Biolabs. ATP and Staurosporine were purchased from Sigma-Aldrich (St Louis, Mo.). Rabbit monoclonal anti-Histone H3T3ph antibody (clone JY325) from Millipore (Billerica, Mass.) was directly labeled by PerkinElmer (Waltham, Mass.) with LANCE Eu W1024. For indirect detection, LANCE Eu W1024 labeled anti-rabbit IgG antibody was used (PerkinElmer). Streptavidin conjugated to SureLight-Allophycocyanin (PerkinElmer) was used as the acceptor fluorophore.
A CRS CataLyst Express robotic arm (Thermo Fisher Scientific, Waltham, Mass.) and a Cybi-well 384 channel simultaneous pipettor (CyBio AG, Jena, Germany) were used to carry out the high throughput screening of a small molecule library. Kinase reactions were performed in 50 mM Tris, pH 7.5, 5 mM MgCl2, 1 mM DTT, 0.01% Brij-35 using Proxiplate 384 Plus white assay plates (PerkinElmer). […] The reaction was incubated for 10 minutes at room temperature. The reaction was terminated by addition of […] 50 mM EDTA, 2 nM Europium labeled anti-Histone H3T3ph antibody, 40 nM Streptavidin-APC. After a two hour incubation at room temperature, TR-FRET measurements were performed using a PHERAstar HTS microplate reader (BMG Labtech, Offenberg, Germany), and were expressed as ratios of acceptor fluorescence at 665 nm over donor fluorescence at 620 nm.
Data were analyzed using GraphPad Prism Version 4 (GraphPad Software Inc, La Jolla, Calif.). No inhibitor (“MAX”) and Staurosporine inhibitor (“MIN”) controls were used to calculate Z′ values and signal to background ratios during the high throughput screen. […] Km concentrations were also determined by non-linear regression.
To identify Haspin inhibitors by high throughput screening a homogeneous kinase assay based on time-resolved fluorescence resonance energy transfer (TR-FRET) was designed (Patnaik D., et al. J Biomol. Screen 13: 1025-1034, […].). This TR-FRET assay was utilized to screen a small molecule library of approximately 140,000 compounds. Primary hits were re-tested by TR-FRET assay using the peptide substrate and then revalidated by assaying the compounds in a radiometric assay using full-length Histone H3 as a protein substrate.
IC50 values were determined for inhibition of Haspin kinase utilizing the TR-FRET assay described in Example 3.
COc1ccc2c(c1)[nH]c1c(C)nccc12 [LDN-97388, harmine, reference compound] gave an IC50 of less than 1000 nM.

Same assay, conditions: high throughput screen by TR-FRET; hits revalidated in radiometric assay and confirmed in cellular assay
With COc1ccc2c(c1)[nH]c1c(/C=C/c3ccccc3)nccc12 [LDN-57292] the “Haspin kinase inhibitory activity (in words)” value was “identified as a Haspin kinase inhibitors”. With COc1ccc2c(c1)[nH]c1c(C)nccc12 [LDN-97388, harmine, reference compound] the “Haspin kinase inhibitory activity (in words)” value was “identified as a Haspin kinase inhibitors”. For harmol [LDN-21813, reference compound], the “Haspin kinase inhibitory activity (in words)” value was “identified as a Haspin kinase inhibitors”.

Same assay, conditions: inhibition of Haspin kinase, TR-FRET assay of Example 3; MBP-Haspin, H3(1-21)-biotin peptide 0.1 μM, ATP 200 μM; read-out: IC50
Cc1nccc2c1[nH]c1cc(OCCCN)ccc12 [LDN-209931] showed an IC50 of less than 1000 nM. Cc1nccc2c1[nH]c1cc(OCCCCN)ccc12 [LDN-209932] showed an IC50 of less than 2000 nM. With COc1ccc2c3ccnc(C)c3n(CCCCN)c2c1 [LDN-209953] the IC50 was less than 200 nM. COc1ccc2c3ccncc3n(CCCCN)c2c1 [LDN-209983] gave an IC50 of less than 350 nM. CCc1nccc2c3ccc(OC)cc3n(CCCCN)c12 [LDN-209984] showed an IC50 of less than 200 nM. With COc1ccc2c3ccnc(C(C)C)c3n(CCCCN)c2c1 [LDN-209985] the IC50 was less than 600 nM. With Cc1nccc2c3ccc(O)cc3n(CCCCN)c12 [LDN-209986] the IC50 was less than 200 nM. Work on Cc1nccc2c3ccc(F)cc3n(CCCCN)c12 [LDN-209987] yielded an IC50 of less than 600 nM. COc1cccc2c3ccnc(C)c3n(CCCCN)c12 [LDN-211893] was tested, and the IC50 was less than 300 nM. For COc1ccc2c(c1)c1ccnc(C)c1n2CCCCN [LDN-211894], the IC50 was less than 3000 nM. With COc1cccc2c1c1ccnc(C)c1n2CCCCN [LDN-211895] the IC50 was less than 3500 nM. In the case of Cc1nccc2c3cc4c(cc3n(CCCCN)c12)OCO4 [LDN-211896], the IC50 is reported as less than 700 nM. For COc1ccc2c3ccnc(C)c3n(CCCCN)c2c1Cl [LDN-211897], the IC50 was less than 1200 nM. With COc1ccc2c3ccnc(C(F)(F)F)c3n(CCCCN)c2c1 [LDN-211898] the IC50 was less than 150 nM. For Cc1nccc2c3ccc(NS(C)(=O)=O)cc3n(CCCCN)c12 [LDN-211899], the IC50 was less than 1000 nM. CNCCCCn1c2cc(OC)ccc2c2ccnc(C)c21 [LDN-211900] gave an IC50 of less than 400 nM. COc1ccc2c3ccnc(C)c3n(CCCCN)c2c1 [LDN-211901] showed an IC50 of less than 500 nM. For NCCCCn1c2cc(O)ccc2c2ccnc(C(F)(F)F)c21 [LDN-211998], the IC50 was less than 300 nM. With harmol [LDN-21813, reference compound] the IC50 was less than 1500 nM.

Same assay, conditions: read-out: IC50
With c1ccc2c(c1)[nH]c1cnccc12 [LDN-14063] the IC50 was greater than 10000 nM. For COc1ccc2c(c1)[nH]c1c(/C=C/c3ccccc3)nccc12 [LDN-57292], the IC50 was less than 2000 nM. COc1ccc2c(c1)[nH]c1ncccc12 [LDN-209919] gave an IC50 greater than 100000 nM. Compound Cc1nccc2c1[nH]c1cc(OCCCCNC(=O)OC(C)(C)C)ccc12 [LDN-209920] has an IC50 greater than 10000 nM. Compound Cc1nccc2c1[nH]c1cc(OCCCNC(=O)OC(C)(C)C)ccc12 [LDN-209921] has an IC50 greater than 10000 nM. Work on COc1ccc2c(c1)[nH]c1ccccc12 [LDN-209934] yielded an IC50 greater than 1000 nM. COc1ccc2c(c1)[nH]c1c(-c3ccccc3)nccc12 [LDN-209952] was tested, and the IC50 was greater than 5000 nM. For COc1ccc2c3ccnc(C)c3n(CCCC(N)c3ccccc3)c2c1 (centres unmarked) [LDN-211902], the IC50 was less than 200 nM. In the case of Cc1nccc2c3ccc(OC(C)(C)C)cc3n(CCCCN)c12 [LDN-211903], the IC50 is reported as less than 5000 nM.
